{"source": "patent US11718650B2", "about": "“Immunogenic peptides and their use in immune disorders” (IMCYSE SA, priority 2006, dated 2023)", "key": {"polyclonal CD4 cells": {"test_system": "polyclonal CD4 cells", "experiment": "apoptosis of polyclonal CD4 cells from peptide 524-543 immunised NOD mice", "assay_type": "cell-based, mouse", "settings": "APC loaded with peptide 524-543", "description": "NOD mice are immunised with peptide containing the thioredoxin consensus sequence in IFA (incomplete Freund adjuvans) from the age of 2 weeks. T cells are expanded in vitro to generate clones with regulatory properties.\nThe table in FIG. 23 represents the percentage of double positive cells (dead cells) after substraction of background values obtained without the regulatory population."}, "NOD mice": {"test_system": "NOD mice", "experiment": "spontaneous insulin-dependent diabetes in NOD mice, GAD65 derived peptide", "assay_type": "in vivo, mouse", "description": "Non-obese diabetes (NOD) mice constitutes a suitable animal model for spontaneous insulin-dependent diabetes.\nAdoptive transfer of Treg at the age of 2 weeks in NOD mice, namely before the onset of insulitis (3 weeks of age) is shown to fully prevent the onset of diabetes.\nDirect immunisation of NOD mice with the peptide CRLC […] [SEQ ID.\nImmunisation with peptide CRLC […] [SEQ ID."}, "CD4+CD25(−) T cells": {"test_system": "CD4+CD25(−) T cells", "experiment": "bystander suppression of anti-CD3 activated CD4+CD25(−) T cells", "assay_type": "cell-based, mouse", "settings": "72 h, 2 concentrations (2mM, 4 mM)", "experimental": "Bystander suppression assays. Target CD4+CD25− T cells and T helper clones were labelled with 125nM CFSE (Molecular Probes) for 15 minutes in PBS at 37° C. The reaction was stopped by washing the cells with PBS containing 30% FBS. These cells (3×10^5) were cocultured with 10^5 cytotoxic CD4+ T cell clones and cell depleted splenocytes with 1 μg/ml anti-CD3 antibody (eBioscience), For suppression of T helper clones, 10^5 cells were co-cultured with the same number of cytotoxic cells and T cell depleted splenocytes. After 48 h or 72 hours, cells were collected and analysed by flow cytometry.\nFirst, the capacity of Tregs was assayed to suppress the proliferation of CD4+CD25(−) T cells after anti-CD3 activation in the presence of antigen-presenting cells. […] This effect was even more pronounced at 72 h for the second T cell clone (lower middle panel). […] The control experiment in which Treg was replaced by an identical number of unlabeled CD4+CD25(−) T cells (right panels) eliminated a possible artefact related to variable numbers of total cells in the culture medium.\nNext, the kinetics of suppression were analysed. In the experiments shown in FIG. 14b, it can be seen that 48 and 70% of CFSE-labelled CD4+CD25(−) T cells express Annexin V after 18 and 24 h co-incubation with a cytolytic Treg (R3TB7), respectively, using the same assay system as in FIG. 14a. […]"}, "WEHI cells [1]": {"test_system": "WEHI cells", "experiment": "apoptosis of peptide-loaded WEHI cells by cytolytic T cell clones, with inhibitors", "assay_type": "cell-based, mouse", "settings": "p21-35 loaded WEHI cells and a cytolytic T cell clone", "experimental": "For inhibition of GZ-B activity, Z-AAD-CMK (Calbiochem) or 3,4-dichloroiso-coumarin (DCIC) (SIGMA) were added at indicated concentrations during all the co-culture period.\nExperiments were carried out with p21-35-loaded CD11c dendritic (FIG. 13b: left panel) or WEHI cells (FIG. 13b: right panel). Upon incubation with R3TB7 virtually all dendritic cells (DC) or Wehi cells were induced into apoptosis as measured by caspase 3 activation.\nApoptosis can be induced by either the Fas-FasL pathway or by secretion of cytotoxic granules containing granzymes. Attempts were made to inhibit each of these pathways. Addition of increasing concentrations of an antibody towards FasL, or of granzyme B inhibitors, to a cell culture containing p21-35 loaded WEHI cells and a cytolytic T cell clone, increased the number of surviving WEHI cells in a dose-dependent manner (FIG. 13c). In a number of experiments it was shown that the anti-FasL antibody restored up to 80% of WEHI cell survival.\nTo further ascertain that APC lysis required direct contact with cytolytic T cells through MHC class II presentation of p21-35, an experiment was carried out in which two identical populations of Wehi cells were loaded with either p21-35 or with an irrelevant peptide (p71-85). These two populations could be distinguished by differential CFSE labelling. It can be seen from FIG. 13e that, while WEHI cells presenting p21-35 were fully lysed, only 40% of p71-85-loaded cells were affected."}, "MHC II cleft": {"test_system": "MHC II cleft", "experiment": "affinity for the MHC II cleft", "assay_type": "binding"}, "CD4+ T cell": {"test_system": "CD4+ T cell", "experiment": "CD4+ T cell proliferation elicited by single amino acid p21-35 mutants (IP immunisation in alum)", "settings": "mouse, in vivo", "experimental": "Based on findings showing that regulation can be more readily achieved with analogues of T cell epitopes, the capacity of various single amino acid p21-35 mutants to elicit CD4+ T cell after IP immunisation in alum was determined. […] The mutated form of mp21-35 (mp21-35Asn) was therefore use in the remainder of the experiments in this Example."}, "[2]": {"test_system": "polyclonal CD4+CD25− cells", "experiment": "bystander suppression assay with CD4+CD25− cells from EAE animals", "assay_type": "cell-based, mouse", "settings": "20 μg SC on aluminium hydroxide, three injections", "experimental": "Groups of C57BL/6 mice are immunised subcutaneously (20 μg) with peptide (CHGS […] [SEQ ID. NO: 32], which contains the sequence motif C-X(2)-S) or control peptide ([…] [SEQ ID. NO: 33]) adsorbed onto aluminium hydroxide, Three injections are performed at 2-week intervals. Ten days after the last immunisation, mice are sacrificed and CD4+ T cells (2×10^6 cells) are prepared from the spleen using magnetic beads. CD4+ T cells are then stimulated in vitro by the MOG T cell epitope (20 μg/ml) presented by adherent spleen cells (2×10^6 cells).\nAfter four re-stimulations, a T cell line is tested in a bystander suppression assay with, as target cells, polyclonal CD4+CD25− cells obtained from animals in which EAE (Experimental autoimmune encephalomyelitis) was effective."}, "C57BL/6 mice": {"test_system": "C57BL/6 mice", "experiment": "prevention of multiple sclerosis by peptide immunisation", "assay_type": "in vivo, mouse", "settings": "5 injections 20 μg in IFA at 14 days interval before disease induction", "experimental": "In the model group, 3 C57BL/6 mice received, at day 0, SC injection of 100 μg MOG peptide/400 μg Mycobacterium butyricum in CFA and ip injection of 300 ng Bortetella pertussis in NaCl. At day +2, a second injection of B. pertussis was given.\nIn the prevention group, 5 C57BL/6 mice are immunised by 5 injections with 20 μg CSMOG peptide (CHGS […] [SEQ ID. NO: 32]), which contains the sequence motif C-X(2)-S, in IFA at 14 days interval before disease induction as in the model group. Control experiments are performed with the peptide [SEQ ID. NO: 33] lacking the motif at its N-terminus.\nScores were established as 0: no disease, 1: limp tail, 2: limp tail and loss of weight higher than 10%, 3: partial paralysis of hind limbs."}, "dendritic cells": {"test_system": "dendritic cells", "assay_type": "cell-based"}, "Patients": {"test_system": "Patients", "experiment": "patients with birch pollen and apple allergy treated with peptide", "assay_type": "in vivo, human", "settings": "3 SC injections", "description": "Patients presenting with allergic symptoms upon exposure to birch pollen together with an oro-pharyngeal allergy to ingestion of apple and treated by 3 SC injections of peptide CGPC […] [SEQ ID."}, "BALB/c mice": {"test_system": "BALB/c mice", "settings": "mouse, in vivo"}, "WEHI cells [3]": {"test_system": "WEHI cells", "experiment": "Wehi cell apoptosis by the G121 regulatory T cell clone with various forms of peptide", "assay_type": "cell-based, mouse"}, "G221N": {"test_system": "G221N", "experiment": "peptide processing assay with effector T cell clone G221N", "assay_type": "cell-based, mouse"}, "spleen CD4+ T cells": {"test_system": "spleen CD4+ T cells", "settings": "mouse, in vivo, ip"}}, "note": "Read-outs that look alike come from different tables or passages of the source. Non-standard residues stand in square brackets, D forms with d. No end group written: not given here.", "data": [{"compound": "CRLC KVAPVIKARMM (CRLCKVAPVIKARMM; modified fragment of glutamic acid decarboxylase (GAD65)) [SEQ ID. NO: 35]", "values": [{"measurement": "apoptosis induced by polyclonal cells from immunised mice", "setting": "polyclonal CD4 cells", "result": "induce apoptosis in polyclonal CD4 cells"}, {"measurement": "diabetes and insulitis, suppression by immunisation", "setting": "NOD mice; after 15 weeks of age", "result": "suppress diabetes and insulitis"}, {"measurement": "diabetes and insulitis, prevention by direct immunisation", "setting": "NOD mice; from the age of 2 weeks", "result": "fully prevent diabetes and lesions of insulitis"}]}, {"compound": "O=C(O)CN(CCOCCOCCN(CC(=O)O)CC(=O)O)CC(=O)O", "note": "[EGTA]", "values": [{"measurement": "inhibition of the suppression of bystander T cells", "setting": "CD4+CD25(−) T cells", "result": "Basically no inhibition"}, {"measurement": "restoration of WEHI cell survival", "setting": "WEHI cells [1]", "result": "only partial restoration of Wehi cell survival"}]}, {"compound": "IIe28Asn: IIe28Asn substitution of Der p 2 peptide p21-35 (CHGSEPCNIHRGKPF; UniProt P49278 38-52, looked up, fragment I28N)", "values": [{"measurement": "affinity for the MHC II cleft versus natural p21-35", "setting": "MHC II cleft", "result": "lower affinity"}, {"measurement": "capacity to induce T cell proliferation", "setting": "CD4+ T cell", "result": "only slightly reduced"}]}, {"compound": "CHGS YRSPFSRVVHLYR (CHGSYRSPFSRVVHLYR; reducing motif fused to MOG (Myelin Oligodendrocyte Glycoprotein) peptide) [SEQ ID. NO: 32]", "values": [{"measurement": "capacity of T cell line from immunised animals to induce death in target cells", "setting": "[2]", "result": "have the capacity to induce death in target cells"}, {"measurement": "development of the syndrome (clinical score)", "setting": "C57BL/6 mice", "result": "completely abolishes the development of the syndrome"}]}, {"compound": "(CGPC)D-isomer LRAVESYLLAH ([dC]G[dP][dC]LRAVESYLLAH; cysteine pairing not given here) [SEQ ID. NO: 47]", "values": [{"measurement": "apoptosis of dendritic cells by CD4+ T cells of treated subjects", "setting": "dendritic cells; dendritic cells loaded with the Mal d 1 antigen", "result": "resulted in dendritic cell apoptosis"}, {"measurement": "apoptosis of dendritic cells by CD4+ T cells of treated subjects", "setting": "dendritic cells; dendritic cells presenting the Bet v 1 antigen, three SC injections of 50 μg on alum", "result": "induced apoptosis of dendritic cells presenting the Bet v 1 antigen"}, {"measurement": "reaction to pollen exposure or apple contact", "setting": "Patients", "result": "failed to react to either exposure to pollen or contact with apple"}]}, {"compound": "QYIKANSKFIGITELGGCHGSEPCIIHRGKPF [mp21-35]", "values": [{"measurement": "suppression of airway inflammation and hyperreactivity", "setting": "BALB/c mice", "result": "even more effective in suppressing airway inflammation and hyperreactivity"}, {"measurement": "efficiency in inducing Wehi cell apoptosis in the presence of the G121 Treg, as compared to p21-35", "setting": "WEHI cells [3]", "result": 100, "unit": "fold"}, {"measurement": "requirement for internalisation, fusion with and acidification of late endosomes", "setting": "G221N", "result": "required internalisation into antigen-presenting cells"}, {"measurement": "requirement for peptide processing", "setting": "G221N", "result": "had to be processed for efficient presentation"}, {"measurement": "Der p 2-induced proliferation of spleen CD4+ T cells", "setting": "spleen CD4+ T cells", "result": "significant reduction"}]}]}
